Conditions: Liquid, Vibrating tube method

COCCOCCOC [2,5,8-trioxanonane]
Conditions | mass density [kg/m3]
283.67 K, 40000 kPa | 978.49
283.67 K, 60000 kPa | 989.12
283.67 K, 80000 kPa | 998.75
283.67 K, 100000 kPa | 1007.71
283.68 K, 10000 kPa | 960.29
283.68 K, 20000 kPa | 966.68
283.68 K, 30000 kPa | 972.8
283.69 K, 100 kPa | 953.48
283.69 K, 1000 kPa | 954.15
283.69 K, 5000 kPa | 956.94
303.47 K, 100 kPa | 933.69
303.47 K, 1000 kPa | 934.43
303.48 K, 5000 kPa | 937.55
303.48 K, 10000 kPa | 941.31
303.49 K, 20000 kPa | 948.42
303.49 K, 30000 kPa | 955.17
303.49 K, 40000 kPa | 961.41
303.49 K, 60000 kPa | 973.02
303.5 K, 80000 kPa | 983.33
303.5 K, 100000 kPa | 992.97
322.62 K, 100 kPa | 914.41
322.62 K, 1000 kPa | 915.3
322.62 K, 5000 kPa | 918.77
322.62 K, 10000 kPa | 923.02
322.62 K, 20000 kPa | 930.99
322.62 K, 30000 kPa | 938.31
322.62 K, 40000 kPa | 945.16
322.62 K, 60000 kPa | 957.74
322.62 K, 80000 kPa | 968.98
322.62 K, 100000 kPa | 979.2
342.49 K, 100 kPa | 894.03
342.49 K, 1000 kPa | 894.98
342.49 K, 5000 kPa | 898.96
342.5 K, 10000 kPa | 903.66
342.5 K, 20000 kPa | 912.57
342.51 K, 30000 kPa | 920.68
342.51 K, 40000 kPa | 928.18
342.51 K, 60000 kPa | 941.77
342.51 K, 80000 kPa | 953.82
342.52 K, 100000 kPa | 964.68
362.51 K, 100 kPa | 873.45
362.51 K, 1000 kPa | 874.46
362.51 K, 5000 kPa | 879.02
362.52 K, 10000 kPa | 884.41
362.52 K, 20000 kPa | 894.33
362.52 K, 30000 kPa | 903.29
362.52 K, 40000 kPa | 911.53
362.53 K, 60000 kPa | 926.3
362.53 K, 80000 kPa | 939.26
362.53 K, 100000 kPa | 950.89

Source: the NIST ThermoML archive (doi:10.1021/acs.jced.7b00176)
